Measured values reported in patent US8344008B2 (Janssen Pharmaceutica NV, priority 2007, dated 2013).
Counter-ions that a name gives are not always drawn.

Biological target: T1, recombinant human LTA4 hydrolase (rhLTA4H) (Homo sapiens, UniProt P09960)
T1 construct: made in house; host or cells: Spodoptera frugiperda (Sf-9) cells, baculovirus (pFastBac1)
T1 sequence (P09960 1-611): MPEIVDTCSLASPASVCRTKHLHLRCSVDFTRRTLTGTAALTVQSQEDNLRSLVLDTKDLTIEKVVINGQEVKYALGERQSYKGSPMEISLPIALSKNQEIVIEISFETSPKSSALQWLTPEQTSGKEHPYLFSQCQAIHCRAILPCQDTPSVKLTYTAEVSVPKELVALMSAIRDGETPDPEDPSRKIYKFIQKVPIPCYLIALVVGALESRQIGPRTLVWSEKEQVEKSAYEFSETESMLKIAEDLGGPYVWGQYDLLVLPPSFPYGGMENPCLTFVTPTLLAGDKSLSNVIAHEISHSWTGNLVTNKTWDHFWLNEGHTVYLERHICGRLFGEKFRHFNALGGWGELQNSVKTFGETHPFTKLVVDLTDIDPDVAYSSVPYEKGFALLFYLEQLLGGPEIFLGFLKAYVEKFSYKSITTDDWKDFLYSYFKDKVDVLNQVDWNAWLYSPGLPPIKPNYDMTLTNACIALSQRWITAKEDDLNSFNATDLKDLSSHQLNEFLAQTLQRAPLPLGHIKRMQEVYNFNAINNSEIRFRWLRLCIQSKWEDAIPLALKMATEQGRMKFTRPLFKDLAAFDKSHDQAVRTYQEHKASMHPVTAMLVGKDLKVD
Experiment: Recombinant Human LTA4 Hydrolase Assay for LTA4 Hydrolase Inhibitor Activity
Assay type: biochemical
Conditions: average of results obtained; LTB4 quantified by enzyme-linked immunoassay
Summary of the method: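 Baculovirus/Sf-9-expressed human LTA4 hydrolase (36 ng) preincubated with compound 10 min at rt in 0.1 M potassium phosphate pH 7.4, 5 mg/mL fatty-acid-free BSA. Reaction started with 9 ng LTA4 free acid, run 10 min at rt; LTB4 measured by enzyme immunoassay, IC50 from 4-parameter fit.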

Molecule | Ki
CS(=O)(=O)N1CC2CCC(C1)N2CCOc1ccc(Oc2nc3cccc(F)c3s2)cc1 [Example 211, meso-7-Fluoro-2-{4-[2-(3-methanesulfonyl-3,8-diaza-bicyclo[3.2.1]oct-8-yl)-ethoxy]-phenoxy}-benzothiazole] | 0.159 µM
meso-endo-[4-(6-Chloro-benzothiazol-2-yloxy)-benzyl]-(8-methanesulfonyl-8-aza-bicyclo[3.2.1]oct-3-yl)-amine [Example 228] | 1.59 µM
CC(=O)N1C[C@@H]2C[C@H]1CN2CCOc1ccc(Oc2nc3ccccc3s2)cc1 [Example 9, (S,S)-1-(5-{2-[4-(Benzothiazol-2-yloxy)-phenoxy]-ethyl}-2,5-diaza-bicyclo[2.2.1]hept-2-yl)-ethanone] | 0.003 µM
NC(=O)N[C@@H]1C[C@H]2CC[C@@H](C1)N2Cc1ccc(Oc2nc3c(Cl)cccc3s2)cc1 [Example 229, meso-exo-{8-[4-(4-Chloro-benzothiazol-2-yloxy)-benzyl]-8-aza-bicyclo[3.2.1]oct-3-yl}-urea] | 0.02 µM
COC(=O)c1ccc(CN2CC3CN(Cc4ccc(Oc5nc6ccccc6s5)cc4)CC3C2)cc1 (stereo not shown) [Example 153, 4-{5-[4-(Benzothiazol-2-yloxy)-benzyl]-hexahydro-pyrrolo[3,4-c]pyrrol-2-ylmethyl)-benzoic acid methyl ester] | 0.167 µM
CC(=O)N1C[C@@H]2C[C@H]1CN2CCc1ccc(Oc2nc3c(Cl)cccc3s2)cc1 [Example 253, (S,S)-1-(5-{2-[4-(4-Chloro-benzothiazol-2-yloxy)-phenyl]-ethyl}-2,5-diaza-bicyclo[2.2.1]hept-2-yl)-ethanone] | 2.6 µM
CC(C)(O)C(=O)N1C2CCC1CN(Cc1ccc(Oc3nc4ccccc4s3)cc1)C2 [Example 53, meso-1-{3-[4-(Benzothiazol-2-yloxy)-benzyl]-3,8-diaza-bicyclo[3.2.1]oct-8-yl}-2-hydroxy-2-methyl-propan-1-one] | 0.117 µM
Cc1ccc2nc(Oc3ccc(CCN4C5CCC4CN(S(C)(=O)=O)C5)cc3)sc2c1 [Example 214, meso-2-{4-[2-(3-Methanesulfonyl-3,8-diaza-bicyclo[3.2.1]oct-8-yl)-ethyl]-phenoxy}-6-methyl-benzothiazole] | 0.543 µM
NC(=O)N1CCC2CN(Cc3ccc(Oc4nc5ccccc5s4)cc3)CC21 (stereo not shown) [Example 135, 5-[4-(Benzothiazol-2-yloxy)-benzyl]-hexahydro-pyrrolo[3,4-b]pyrrole-1-carboxylic acid amide] | 0.057 µM
CC(=O)N1C[C@@H]2C[C@H]1CN2CCc1cccc(Oc2nc3ccccc3s2)c1 [Example 8, (S,S)-1-(5-{2-[3-(Benzothiazol-2-yloxy)-phenyl]-ethyl}-2,5-diaza-bicyclo[2.2.1]hept-2-yl)-ethanone] | 0.206 µM
O=C([C@@H]1CCCO1)N1CC2CN(Cc3ccc(Oc4nc5ccccc5s4)cc3)CC2C1 (stereo partly drawn) [Example 101, (S)-{5-[4-(Benzothiazol-2-yloxy)-benzyl]-hexahydro-pyrrolo[3,4-c]pyrrol-2-yl}-(tetrahydro-furan-2-yl)-methanone] | 0.108 µM
CC(=O)N1CCC2CN(Cc3ccc(Oc4nc5ccccc5s4)cc3)CC2C1 (stereo not shown) [Example 89, 1-{2-[4-(Benzothiazol-2-yloxy)-benzyl]-octahydro-pyrrolo[3,4-c]pyridin-5-yl}-ethanone] | 0.006 µM
O=C(N1CCOCC1)N1CC2CN(Cc3ccc(Oc4nc5ccccc5s4)cc3)CC2C1 (stereo not shown) [Example 115, {5-[4-(Benzothiazol-2-yloxy)-benzyl]-hexahydro-pyrrolo[3,4-c]pyrrol-2-yl}-morpholin-4-yl-methanone] | 0.01 µM
CS(=O)(=O)N1[C@@H]2CC[C@H]1C[C@H](NCCc1ccc(Oc3nc4c(Cl)cccc4s3)cc1)C2 [Example 237, meso-exo-{2-[4-(4-Chloro-benzothiazol-2-yloxy)-phenyl]-ethyl}-(8-methanesulfonyl-8-aza-bicyclo[3.2.1]oct-3-yl)-amine] | 0.244 µM
CC(=O)N1[C@@H]2CC[C@H]1C[C@H](NCCc1ccc(Oc3nc4c(Cl)cccc4s3)cc1)C2 [Example 275, meso-exo-1-(3-{2-[4-(4-Chloro-benzothiazol-2-yloxy)-phenyl]-ethylamino}-8-aza-bicyclo[3.2.1]oct-8-yl)-ethanone] | 0.264 µM
NC(=O)N1[C@@H]2CC[C@H]1C[C@@H](NCCOc1ccc(Oc3nc4cc(Cl)ccc4s3)cc1)C2 [Example 257, meso-endo-3-{2-[4-(5-Chloro-benzothiazol-2-yloxy)-henoxy]-ethylamino}-8-aza-bicyclo[3.2.1]octane-8-carboxylic acid amide] | 0.49 µM
CS(=O)(=O)N[C@H]1C[C@H]2CC[C@@H](C1)N2Cc1ccc(Oc2nc3cc(F)ccc3s2)cc1 [Example 208, meso-endo-N-{8-[4-(5-Fluoro-benzothiazol-2-yloxy)-benzyl]-8-aza-bicyclo[3.2.1]oct-3-yl}-methanesulfonamide] | 0.022 µM
CS(=O)(=O)N1C[C@H]2C[C@@H]1CN2CCOc1ccc(Oc2nc3ccccc3s2)cc1 [Example 223, (R,R)-2-{4-[2-(5-Methanesulfonyl-2,5-diaza-bicyclo[2.2.1]hept-2-yl)-ethoxy]-phenoxy}-benzothiazole] | 0.064 µM
CS(=O)(=O)N1C[C@H]2C[C@@H]1CN2CCOc1ccc(Oc2nc3c(Cl)cccc3s2)cc1 [Example 203, (R,R)-4-Chloro-2-{4-[2-(5-methanesulfonyl-2,5-diaza-bicyclo[2.2.1]hept-2-yl)-ethoxy]-phenoxy}-benzothiazole] | 0.293 µM
c1ccc2sc(Oc3ccc(CCN4C[C@@H]5C[C@H]4CN5)cc3)nc2c1 [Example 7B, (S,S)-2-{4-[2-(2,5-Diaza-bicyclo[2.2.1]hept-2-yl)-ethyl]-phenoxy}-benzothiazole hydrochloride] | 0.01 µM

More lines, in order of falling Ki, values ahead:

Ki | Molecule
1.66 µM | CC(=O)N[C@@H]1C[C@H]2CC[C@@H](C1)N2CCOc1ccc(Oc2nc3cccc(Cl)c3s2)cc1 [Example 195, meso-exo-N-(8-{2-[4-(7-Chloro-benzothiazol-2-yloxy)-phenoxy]-ethyl}-8-aza-bicyclo[3.2.1]oct-3-yl)-acetamide]
0.417 µM | CC(=O)N1C[C@H]2C[C@@H]1CN2Cc1ccc(Oc2nc3c(Cl)cccc3s2)cc1 [Example 164, (R,R)-1-{5-[4-(4-Chloro-benzothiazol-2-yloxy)-benzyl]-2,5-diaza-bicyclo[2.2.1]hept-2-yl}-ethanone]
0.221 µM | O=C(C1CNC1)N1CC2CN(Cc3ccc(Oc4nc5ccccc5s4)cc3)CC2C1 (stereo not shown) [Example 99, Azetidin-3-yl-{5-[4-(benzothiazol-2-yloxy)-benzyl]-hexahydro-pyrrolo[3,4-c]pyrrol-2-yl}-methanone]
0.072 µM | CS(=O)(=O)N1C[C@@H]2C[C@H]1CN2CCc1ccc(Oc2nc3cccc(F)c3s2)cc1 [Example 232, (S,S)-7-Fluoro-2-{4-[2-(5-methanesulfonyl-2,5-diaza-bicyclo[2.2.1]hept-2-yl)-ethyl]-phenoxy}-benzothiazole]
0.04 µM | O=C(CNC(=O)C(F)(F)F)N1CCC2CN(Cc3ccc(Oc4nc5ccccc5s4)cc3)CC21 (stereo not shown) [Example 98, N-(2-{5-[4-(Benzothiazol-2-yloxy)-benzyl]-hexahydro-pyrrolo[3,4-b]pyrrol-1-yl}-2-oxo-ethyl)-2,2,2-trifluoro-acetamide]
0.04 µM | NC(=O)N1C[C@H]2C[C@@H]1CN2CCc1ccc(Oc2nc3ccc(Cl)cc3s2)cc1 [Example 246, (R,R)-5-{2-[4-(6-Chloro-benzothiazol-2-yloxy)-phenyl]-ethyl}-2,5-diaza-bicyclo[2.2.1]heptane-2-carboxylic acid amide]
0.033 µM | CC(=O)N1[C@@H]2CC[C@H]1C[C@@H](NCCc1ccc(Oc3nc4ccc(Cl)cc4s3)cc1)C2 [Example 224, meso-endo-1-(3-{2-[4-(6-Chloro-benzothiazol-2-yloxy)-phenyl]-ethylamino}-8-aza-bicyclo[3.2.1]oct-8-yl)-ethanone]
0.021 µM | CS(=O)(=O)N1[C@@H]2CC[C@H]1C[C@@H](NCCc1ccc(Oc3nc4c(F)cccc4s3)cc1)C2 [Example 279, meso-endo-{2-[4-(4-Fluoro-benzothiazol-2-yloxy)-phenyl]-ethyl}-(8-methanesulfonyl-8-aza-bicyclo[3.2.1]oct-3-yl)-amine]
0.012 µM | CC(=O)N1CC2CCC(C1)N2Cc1ccc(Oc2nc3ccccc3s2)cc1F [Example 77, meso-1-{8-[4-(Benzothiazol-2-yloxy)-2-fluoro-benzyl]-3,8-diaza-bicyclo[3.2.1]oct-3-yl}-ethanone]
0.011 µM | NC(=O)N1C[C@H]2C[C@@H]1CN2CCc1ccc(Oc2nc3ccccc3s2)cc1 [Example 280, (R,R)-5-{2-[4-(Benzothiazol-2-yloxy)-phenyl]-ethyl}-2,5-diaza-bicyclo[2.2.1]heptane-2-carboxylic acid amide]
0.004 µM | CC(C)(O)C(=O)N[C@H]1C[C@H]2CC[C@@H](C1)N2Cc1ccc(Oc2nc3ccccc3s2)cc1 [Example 54, meso-endo-N-{8-[4-(Benzothiazol-2-yloxy)-benzyl]-8-aza-bicyclo[3.2.1]oct-3-yl}-2-hydroxy-2-methyl-propionamide]
